One test relates to P388 leukemia cells. The test is described as follows: Antitumor effect in P388 murine leukemia model. It is filed as in vivo. The conditions noted are these: B6D2F1 female mice; intraperitoneal; single doses or daily for 10 consecutive days; all tested doses and schedules.
The next test has as its system A549 human NSCLC. The test is described as follows: Combination study in vitro, growth inhibition, median effect analysis (A549). It is filed as cell-based. How it is done: (§1) The cell lines A549 human NSCLC and WiDr human colon carcinoma are used to determine the combination index and also the effect of Gemcitabine-5′-elaidate on the cell cycle. A sulforhodamine B colorimetric assay is used to determine growth inhibition after 72 hours. Pemetrexed combinations are tested using the MTT assay. Combinations with pemetrexed are also tested in the WiDr-LF cell line, which are WiDr cells cultured under low folate conditions. The IC25 and IC50 values (inhibitory concentrations at 25% or 50%, respectively) are calculated. The IC25 value is used for combinations with serial dilutions of oxaliplatin or docetaxel, and the IC50 value is used for pemetrexed combinations. Median effect analysis is performed.

Test [1] deals with CCRF-CEM human leukemia cell line. The test is described as follows: Triphosphate accumulation and retention in CCRF-CEM cells. It is filed as cell-based. An excerpt:
Drugs: Gemcitabine-5′-elaidate was provided by Clavis Pharma (Oslo, Norway), tetra hydro uridine (THU) was from Calbiochem (Merck, Darmstadt, Germany), dipyridamole and ara-C were from Sigma-Aldrich (St. Louis, Mo., USA) and dFdC was from Eli-Lilly (Indianapolis, Ind., USA). The radioactively labeled drugs were obtained from Moravek (Brea, Calif., USA); the drugs were labeled with tritium on the 5-C site of the base. A mix of radioactive and non-radioactive compounds was made for exposure of cells; dFdC and CP-4126 were used at a final concentration of 8.9 μM and a specific activity of 586 and 391 mCi/mmol, respectively.
Cell lines: For the experiments the CCRF-CEM human leukemia cell line and its dCK negative variant (CEM/dCK−) were used. The cell lines were cultured in RPMI medium (BioWhittaker, Verviers, Belgium) supplemented with 10% fetal calf serum (PAA laboratories, Pasching, Austria) and HEPES buffer (BioWhittaker). Of the nucleoside influx transporters, the CEM cell line only expresses the equilibrative nucleoside transporter (hENT) and not the concentrative nucleoside transporter (hCNT). Belt et al. Adv. Enzyme Regul., 1993, 33, 235-52. Dipyridamole (DP) was used to inhibit the influx of the drugs by hENT. In order to get a clean picture, THU was also added to inhibit deamination of ara-C and dFdC.
Triphosphate accumulation: Cells were treated with 1 and 10 μM of dFdC, while for the lipophilic analogs 10 and 100 μM was used. The cells were incubated for 60 minutes and retention of the triphosphates was investigated after 60 and 120 minutes incubation in drug-free medium. Dipyridamole was added to inhibit drug influx by the hENT transporter. After incubation the cell pellet was resuspended in ice-cold PBS and incubated for 20 minutes at 4° C. with 40% trichloroacetic acid. After centrifugation (10,000 g, 10 min, 4° C.) the supernatant was treated with a 2-fold excess of trioctylamine/1,1,2-trichlorotrifluorethane (1:4) and spun down (10,000 g, 1 min) and the aqueous phase was stored at −20° C. until analysis by HPLC on a Whatman Partisphere SAX column (GE healthcare, Chalfont St. Giles, UK) using gradient (dFdC-TP) elution as described earlier. Noordhuis et al., Leuk. Res., 1996, 20, 127-34; Ruiz van Haperen, et al., Biochem. Pharmacol., 1994, 48, 1327-39.

The next test relates to A549. Put plainly: Platinum accumulation in DNA (A549). The settings on record: oxaliplatin 200 μM combined with Gemcitabine-5′-elaidate 0.004 μM. It is filed as cell-based, human. The method, then: The effect on DNA platinum accumulation in DNA after exposure to oxaliplatin and oxaliplatin combined with Gemcitabine-5′-elaidate (oxaliplatin [200 μM] combined with Gemcitabine-5′-elaidate [0.004 μM]) is also determined.

Another test relates to WiDr cell line. Put plainly: Cell cycle analysis, flow cytometry with propidium iodide (WiDr). It is filed as cell-based, human. How it is done:
(§2) The effect on cell cycle is determined after 72 h exposure using flow cytometry combined with propidium iodide staining For cell cycle analysis, the concentration range is from 0.0005 μM to 0.05 μM in the A549 cell line and from 0.001 μM to 0.1 μM in the WiDr cell line. […] The effect on cell cycle is obtained also for the combinations with pemetrexed.
On the technique in general: Flow cytometry measures light scatter and fluorescence of single cells or particles in a stream.

Test [2] deals with human colon cancer Co6044. The test is described as follows: Antitumor activity in human colon xenograft Co6044 (intraperitoneal). The conditions noted are these: intraperitoneally every third day five times. It is filed as in vivo. How it is done: Fragments of human colon cancers Co5776 and Co6044 are implanted subcutaneously in NCR female mice (7-8 mice/group). Gemcitabine (120 mg/kg) and gemcitabine-5′-elaidic acid ester (40 mg/kg) are administered intraperitoneally, every third day for five times.
A general note: Xenograft models place foreign cells or tissue in a host animal.

Test [3] deals with THX, Lox, MOLT4, and MOLT4/C. Put plainly: Protection by dipyridamole from cell killing in vitro (FIG. 4). It is filed as cell-based. The settings on record: four cell lines. An excerpt: The number on the Y axis is the fold protection by dipyridamole from administration of gemcitabine and gemcitabine-5′-elaidate.
Test [4] has as its system WiDr human colon carcinoma. Put plainly: Combination study in vitro, growth inhibition, median effect analysis (WiDr). It is filed as cell-based. How it is done:
as §1

The test system of the next test is Co6044. Put plainly: Oral activity and schedule dependency in mice with Co6044. It is filed as in vivo, human. The method, then:
Oral administration of Gemcitabine-5′-elaidic acid ester and gemcitabine is tested in NCr:nu/nu mice for potential antitumor activity. Treatment is every third day repeated five times. In a follow-up experiment, the antitumor activity of oral and intraperitoneal treatment is compared in this colon cancer model (Co6044). The doses for oral treatment with Gemcitabine-5′-elaidic acid ester and gemcitabine are lower (20, 30, or 40 mg/kg) than in the previous experiment.
In this experiment, the antitumor activity of oral Gemcitabine-5′-elaidic acid ester in three different administration schedules is compared: every 3 days times 5, daily times 5, and once weekly times 2. Three doses are tested per schedule.

The subject of the next test is CEM and CEM-Ara-C/8. Put plainly: Tumor cell killing in vitro in CEM and hENT1-deficient CEM-Ara-C/8 (FIGS. 5A-5B). The settings on record: CEM vs hENT1-deficient CEM-Ara-C/8. It is filed as cell-based. The text has this:
CEM: T-lymphoblastic leukemia cell line. CEM-Ara-C/8: Clonal derivative of CEM with hENT1 transporter deficiency.

The subject of another test is A549 cell line. Put plainly: Cell cycle analysis, flow cytometry with propidium iodide (A549). It is filed as cell-based, human. The method, then:
as §2

Setting [5] is: 72 hours, sulforhodamine B assay.
Where [6] appears, read: 72 h exposure, 0.001 μM to 0.1 μM.

For `CCCCCCCC/C=C/CCCCCCCC(=O)OC[C@H]1O[C@@H](n2ccc(N)nc2=O)C(F)(F)[C@@H]1O` [gemcitabine-5′-elaidic acid ester], the antitumor activity entry is “significant antitumor activity” in the test with P388 leukemia cells and “High antitumor activity” in the test with Co6044 (every 3 days times 5, daily times 5, once weekly times 2, all tested schedules). Besides, the “combination effect with docetaxel” value (in the test on A549 human NSCLC (setting [5]); in [4] (setting [5])) was “antagonistic” in each case. Also, the “combination effect with oxaliplatin” value (with A549 human NSCLC (setting [5]); in [4] (setting [5])) was “synergistic” throughout. In addition, the “combination effect with pemetrexed” value (with A549 human NSCLC (MTT assay); in test [4] (MTT assay)) was “Antagonistic activity” in each case. In addition, the “retention of dFdC-TP concentration after washing away the drugs” value in test [1] (60 and 120 minutes in drug-free medium) is on record as “retained at a similar level”. Further, the “effect of dipyridamole on dFdC-TP accumulation” value in test [1] (hENT inhibited by dipyridamole) was “even increased the concentration of triphosphates”. The “platinum adducts in DNA, oxaliplatin combined vs oxaliplatin alone” value in the test with A549 is given as “but not in A549”. Further, the “G2/M phase, combination with pemetrexed” value with WiDr cell line is given as “only a marginal increase”. In the test with WiDr cell line (setting [6]), the S phase accumulation result is listed as “S phase accumulation at the two highest concentrations”. Further, in the test with WiDr cell line (setting [6]), the “sub G1 accumulation” value is “dose dependent sub G1 accumulation”. For the same molecule, the “activity compared with gemcitabine” value in test [2] (40 mg/kg vs gemcitabine 120 mg/kg) was “similar”. For the same molecule, the antitumor effect entry in [2] (NCR female mice, gemcitabine 120 mg/kg, gemcitabine-5′-elaidic acid ester 40 mg/kg) is “Significant antitumor effect”. For the same molecule, the “protection by dipyridamole (blocking transporters) against cell killing” value in [3] is “does not protect”. The “dose dependence of activity” value in the test with Co6044 (three doses per schedule) is on record as “dose dependent”. Besides, in the test with CEM and CEM-Ara-C/8, the “tumor cell killing in relation to hENT1” value is “kills tumor cells in vitro independent of hENT1”. Moreover, the “effect on cell cycle” value with A549 cell line (72 h exposure, 0.0005 μM to 0.05 μM) was “no effect on cell cycle”. In the test with A549 cell line (increased from 8.8%), the “G0/G1 phase, combination with pemetrexed” value was found to be 14.1%. Further, the “S phase, combination with pemetrexed” value with A549 cell line (increased from 23.1%) came out at 28.5%.

(Values after patent US20130005678A1, “Methods and Compositions for Treating or Ameliorating Cancer Using Gemcitabine-5'-Elaidate” (CLAVIS PHARMA ASA, priority 2010, published 2013).)
